The record followed here is patent US20100221197A1, “ANTIMICROBIAL AGENT AND EXTERNAL PREPARATION FOR SKIN CONTAINING THE SAME” (TAIYO CORPORATION, priority 2007, published 2010).

SMILES strings stand for the structures. In brackets after ≈: the same amount, converted by molar mass. Read-outs that look alike come from different tables or passages of the source.

One assay concerns S. mutans(JCM5175). Briefly: Antimicrobial test, growth inhibition minimum concentration. The conditions noted are these: for minimum inhibitory concentration: Table 2. It counts as cell-based, Streptococcus mutans. As to the method: (§1) 0.5 mL of a previously sterilized medium (brand name: Brain Heart Infusion Liquid Medium supplied by Nihon Pharmaceutical Co., Ltd.) was added into a 96-well deep type microplate, and 0.5 mL of ricinoleic acid monoglyceride or diglycerine ricinoleic acid monoester of the present invention (synthesized in “1. Synthesis Example of ricinoleic acid monoglyceride” and “2. Synthesis Example of diglycerine ricinoleic acid monoester,” respectively) was added thereto and serially prepared so that the final concentration in the medium was 3 ppm, 6 ppm, 12 ppm, 25 ppm, 50 ppm, 100 ppm, 200 ppm and 400 ppm. 0.1 mL of each cultured bacterial medium of Corynebacterium xerosis (JCM 1971) or Staphylococcus aureus (JCM 2151) at approximately 1×10^8CFU/mL was added to this sample solution, stirred, and then cultured at 37° C. under an aerobic condition for 24 hours. The antimicrobial effect was visually determined, and compared with test plots in which the microorganism had not been added. The test plot in which no turbidity due to growth of the microorganism was observed was determined as the test plot having the antimicrobial effect, and the lowest concentration required for inhibiting the growth of the microorganism (hereinafter referred to as a “growth inhibition minimum concentration”) was measured. As a Comparative Example, the growth inhibition minimum concentration of 4-isopropyl-3-methylphenol known as the antimicrobial agent having a broad antimicrobial spectrum was measured in the same way as in the above. The growth inhibition minimum concentrations of ricinoleic acid monoglyceride and diglycerine ricinoleic acid monoester of the present invention (synthesized in “1. Synthesis Example of ricinoleic acid monoglyceride” and “2. Synthesis Example of diglycerine ricinoleic acid monoester,” respectively) for the 9 indicator bacterial species shown in Table 2 were measured in the same way as in “3. Antimicrobial test” described above.

The subject of a further assay is B. cereus(JCM2152). The assay is described as above. It counts as cell-based, Bacillus cereus. The conditions noted are these: for minimum inhibitory concentration: Table 2. As to the method: as §1
Assay [1] relates to L. monocytogenes(JCM7671). Described as above. Type of assay: cell-based, Listeria monocytogenes. As to conditions: for minimum inhibitory concentration: Table 2. Here is the method:
as §1

Assay [2] has as its system Staphylococcus aureus (JCM 2151). The assay is described as above. Type of assay: cell-based. The conditions noted are these: S. aureus(JCM2151); for MIC: Staphylococcus aureus, read-out: minimum inhibitory concentration. Here is the method: as §1
Assay [3] has as its system Corynebacterium xerosis (JCM 1971). Described as above. Type of assay: cell-based. The conditions noted are these: C. xerosis(JCM1971). As to the method:
as §1

For the next assay, the system named is E. coli(JCM1649). The description is as above. Type of assay: cell-based, Escherichia coli. Here is the method:
as §1

The test system of another assay is S. epidermidis(JCM2414). The description is as above. Type of assay: cell-based, Staphylococcus epidemidis. As to conditions: for minimum inhibitory concentration: Table 2. As to the method:
as §1

The subject of a further assay is P. gingivalis(JCM8525). Described as above. It counts as cell-based, Porphyromonas gingivalis. The conditions noted are these: Table 2. As to the method: as §1
The next assay concerns B. subtile(JCM2151). The description is as above. Type of assay: cell-based, Bacillus subtilis. The conditions noted are these: Table 2. Here is the method:
as §1

The test system of assay [4] is Propionibacterium acnes (JCM 6425). Nature of the assay: Antimicrobial test, growth inhibition minimum concentration (anaerobic). The conditions noted are these: Table 1, P. acnes(JCM6425), 37° C., 48 hours. Type of assay: cell-based. Here is the method: 0.5 mL of the previously sterilized medium (brand name: Brain Heart Infusion Liquid Medium supplied by Nihon Pharmaceutical Co., Ltd.) was added to a 96-well deep type microplate, and 0.5 mL of ricinoleic acid monoglyceride or diglycerine ricinoleic acid monoester of the present invention (synthesized in “1. Synthesis Example of ricinoleic acid monoglyceride” and “2. Synthesis Example of diglycerine ricinoleic acid monoester,” respectively) was added thereto and serially prepared so that the final concentration in the medium was 3 ppm, 6 ppm, 12 ppm, 25 ppm, 50 ppm, 100 ppm, 200 ppm and 400 ppm. 0.1 mL of a cultured bacterial medium of Propionibacterium acnes (JCM 6425) at approximately 1×10^8CFU/mL was added to this sample solution, and cultured at 37° C. under an anaerobic condition using a deoxidizer for 48 hours. The antimicrobial effect was visually determined, and the growth inhibition minimum concentration was measured. As a Comparative Example, the growth inhibition minimum concentration of 4-isopropyl-3-methylphenol known as the antimicrobial agent having a broad antimicrobial spectrum was measured in the same way as in the above.

For assay [5] the test system is unchanged. Briefly: Microbicidal test for Propionibacterium acnes. Type of assay: cell-based. As to conditions: FIG. 2. As to the method: Ricinoleic acid monoglyceride synthesized in “1. Synthesis Example of ricinoleic acid monoglyceride” was added to a 0.2 M phosphate buffer (pH7.0) to prepare a 200 ppm sample. 0.1 mL of Propionibacterium acnes (JCM 6425) at approximately 1×10^8CFU/mL was added to 5 mL of the sample. While being kept under the anaerobic condition, the bacterial sample was taken at 0, 5, 10, 30, 60 and 120 minutes after the addition, and the number of survival bacteria in the sample was counted at each retention time. Specifically, using a GAM agar medium, the sample was serially diluted, cultured using the flat plate smear method at 37° C. under the anaerobic condition for 4 days, and then the number of bacteria was counted. As the comparative control, 4-isopropyl-3-methylphenol was simultaneously evaluated in the same way as in the above.

Assay [6] concerns Staphylococcus aureus (JCM 2151). Briefly: Microbicidal test for Staphylococcus aureus. Type of assay: cell-based. The conditions noted are these: FIG. 1. As to the method:
Ricinoleic acid monoglyceride synthesized in “1. Synthesis Example of ricinoleic acid monoglyceride” was added to a 0.2 M phosphate buffer (pH7.0) to prepare a 200 ppm sample. 0.1 mL of Staphylococcus aureus (JCM 2151) at approximately 1×10^8CFU/mL was added to 5 mL of the sample. While being kept under the aerobic condition, the bacterial sample was taken at 0, 5, 10, 30, 60 and 120 minutes after the addition, and the number of survival bacteria in the sample was counted at each retention time. Specifically, using a Brain Heart Infusion agar medium, the sample was serially diluted, cultured using a flat plate smear method at 37° C. for 48 hours, and then the number of bacteria was counted. As a comparative control, 4-isopropyl-3-methylphenol was simultaneously evaluated in the same way as in the above.

[7] abbreviates: Table 1, 37° C., aerobic, 24 hours.

On to `CCCCCCCCCCCC(=O)OCC(O)CO` (stereo not drawn) [lauric acid monoglyceride], for which the minimum inhibitory concentration is 25 ppm with S. mutans(JCM5175); 25 ppm in the assay with B. cereus(JCM2152); 25 ppm in assay [1]; 50 ppm in assay [2] (Table 2); 100 ppm in assay [3] (Table 2); over 400 ppm with E. coli(JCM1649) (Table 2, E. coli(JCM1649)). Also, the minimum inhibitory concentration with S. epidermidis(JCM2414) was found to be 25 ppm; in the assay with P. gingivalis(JCM8525) it was 13 ppm; with B. subtile(JCM2151), 25 ppm.

For the compound `CCCCCCCCCCCC(=O)OCC(O)COCC(O)CO` (stereo not drawn) [diglycerin lauric acid monoester], the minimum inhibitory concentration with S. mutans(JCM5175) is 50 ppm; in the assay on B. cereus(JCM2152) it was 100 ppm; in [1] it was 200 ppm; in assay [2] (Table 2), 50 ppm; in assay [3] (Table 2), 200 ppm; with E. coli(JCM1649) (Table 2, E. coli(JCM1649)), over 400 ppm. The minimum inhibitory concentration in the assay with S. epidermidis(JCM2414) and in the assay on B. subtile(JCM2151) was 100 ppm in each case.

In the case of `CCCCCCC(O)CC=CCCCCCCCC(=O)OCC(O)COCC(O)CO` (stereo not drawn) [diglycerin ricinoleic acid monoester, diglycerine ricinoleic acid monoester], the minimum inhibitory concentration (in the assay on S. mutans(JCM5175); with B. cereus(JCM2152); in [1]; in assay [2] (setting [7]); in assay [2] (Table 2); in assay [3] (setting [7])) was 50 ppm in each case. Besides, the minimum inhibitory concentration was 25 ppm in assay [3] (Table 2); over 400 ppm in the assay with E. coli(JCM1649) (Table 2, E. coli(JCM1649)); 100 ppm in [4]; 50 ppm in the assay with S. epidermidis(JCM2414); 50 ppm with B. subtile(JCM2151). Also, in the assay with E. coli(JCM1649) (statement in words from Table 2), the “antimicrobial activity against Escherichia coli” value is listed as “did not exhibit antimicrobial activity”.

With `Cc1cc(O)ccc1C(C)C` [4-isopropyl-3-methyl phenol, 4-isopropyl-3-methylphenol], the MIC with S. mutans(JCM5175) (Streptococcus mutans, Table 2, read-out: minimum inhibitory concentration) stood at 200 µg/mL (≈ 1330 µM); in the assay on B. cereus(JCM2152) (Bacillus cereus, Table 2, read-out: minimum inhibitory concentration), 200 µg/mL (≈ 1330 µM); in assay [1] (Listeria monocytogenes, Table 2, read-out: minimum inhibitory concentration), 200 µg/mL (≈ 1330 µM); in assay [2] (setting [7]), 200 µg/mL (≈ 1330 µM); in assay [2] (Table 2) it was 200 µg/mL (≈ 1330 µM); in assay [3] (Corynebacterium xerosis, Table 1, 37° C., aerobic, 24 hours, read-out: minimum inhibitory concentration), 200 µg/mL (≈ 1330 µM). The MIC in the assay with E. coli(JCM1649) (Escherichia coli, Table 2, E. coli(JCM1649), read-out: minimum inhibitory concentration) turned out to be 400 µg/mL (≈ 2660 µM); in assay [4] (Cutibacterium acnes, read-out: minimum inhibitory concentration) it was 200 µg/mL (≈ 1330 µM); in the assay on S. epidermidis(JCM2414) (Staphylococcus epidermidis, Table 2, read-out: minimum inhibitory concentration), 200 µg/mL (≈ 1330 µM). The “retention time for reducing the number of bacteria to 1/100 or less” value in assay [5] (200 ppm sample in 0.2 M phosphate buffer (pH7.0), anaerobic) was 10 min. The “microbicidal action for 5 minutes” value in [5] (200 ppm, retention time 5 minutes) is “weak”. The “retention time for reducing the number of bacteria to 1/1000 or less” value in [6] (200 ppm sample in 0.2 M phosphate buffer (pH7.0), aerobic) turned out to be 30 min. For the same compound, the “microbicidal action for 10 minutes” value in [6] (200 ppm, retention time 10 minutes) was “weak”.

With `CCCCCCCCCCCCCC(=O)OCC(O)CO` (stereo not drawn) [myristic acid monoglyceride], the minimum inhibitory concentration is reported as 100 ppm with S. mutans(JCM5175); 400 ppm in the assay with B. cereus(JCM2152); 200 ppm in assay [1]; 400 ppm in assay [2] (Table 2); 400 ppm in assay [3] (Table 2); over 400 ppm in the assay on E. coli(JCM1649) (Table 2, E. coli(JCM1649)). Besides, the minimum inhibitory concentration was over 400 ppm with S. epidermidis(JCM2414), 50 ppm in the assay with P. gingivalis(JCM8525) and over 400 ppm in the assay with B. subtile(JCM2151).

For `CCCCCCCCCCCCCC(=O)OCC(O)COCC(O)CO` (stereo not drawn) [diglycerin myristic acid monoester], the minimum inhibitory concentration was 50 ppm in the assay with S. mutans(JCM5175); 50 ppm in assay [2] (Table 2); 100 ppm in assay [3] (Table 2); over 400 ppm in the assay with E. coli(JCM1649) (Table 2, E. coli(JCM1649)); over 400 ppm in the assay on S. epidermidis(JCM2414); 25 ppm with B. subtile(JCM2151).
